Data as given in ChEMBL document CHEMBL1201862, “PubChem BioAssay data set” (2004).
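Cultured in 96-well plates, cells were exposed to test compound for 48 hours across five concentrations. GI50 = concentration required for 50% inhibition of growth.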 Calls of active or inactive are those of the source. Rule as the data show it: active = GI50 up to about 1.1 µM and inactive = higher.

Key:
Experiment in all cases: inhibition of tumour cell growth, NCI panel, 48 h
EKVX = test system: EKVX
MDA-MB-231 = test system: MDA-MB-231
UACC-62 = test system: UACC-62
786-0 = test system: 786-0
T47D = test system: T47D
BT-549 = test system: BT-549
NCI-H226 = test system: NCI-H226
OVCAR-3 = test system: OVCAR-3
OVCAR-5 = test system: OVCAR-5
CCRF-CEM = test system: CCRF-CEM
RXF 393 = test system: RXF 393
HOP-92 = test system: HOP-92
HOP-62 = test system: HOP-62
SK-OV-3 = test system: SK-OV-3
KM12 = test system: KM12
OVCAR-4 = test system: OVCAR-4
HCT-15 = test system: HCT-15
HCT-116 = test system: HCT-116
SW-620 = test system: SW-620
DU-145 = test system: DU-145
CAKI-1 = test system: CAKI-1
SNB-75 = test system: SNB-75
U-251 = test system: U-251
SF-539 = test system: SF-539
COLO 205 = test system: COLO 205
MOLT-4 = test system: MOLT-4
SF-295 = test system: SF-295
UACC-257 = test system: UACC-257
A549 = test system: A549
SF-268 = test system: SF-268
HL-60 = test system: HL-60
NCI/ADR-RES = test system: NCI/ADR-RES
MDA-MB-435 = test system: MDA-MB-435
MDA-N = test system: MDA-N
SK-MEL-5 = test system: SK-MEL-5
SR = test system: SR
LOX IMVI = test system: LOX IMVI
IGROV-1 = test system: IGROV-1
Malme-3M = test system: Malme-3M
SK-MEL-2 = test system: SK-MEL-2
NCI-H460 = test system: NCI-H460
NCI-H23 = test system: NCI-H23
SN12C = test system: SN12C
M14 = test system: M14
K562 = test system: K562
TK-10 = test system: TK-10
A498 = test system: A498
ACHN = test system: ACHN
SK-MEL-28 = test system: SK-MEL-28
MCF7 = test system: MCF7
UO-31 = test system: UO-31
Hs-578T = test system: Hs-578T
NCI-H522 = test system: NCI-H522
OVCAR-8 = test system: OVCAR-8
HT-29 = test system: HT-29
SNB-19 = test system: SNB-19
RPMI-8226 = test system: RPMI-8226
HCC 2998 = test system: HCC 2998
PC-3 = test system: PC-3

Measured: GI50

Brc1sc(Br)c2c1[C@H](Br)C[C@@H]2Br
inactive: EKVX > 100 µM | MDA-MB-231 31.1 µM | UACC-62 31.3 µM | 786-0 29.9 µM | T47D 26.1 µM | BT-549 29 µM | NCI-H226 23.1 µM | OVCAR-3 41.9 µM | OVCAR-5 > 100 µM | CCRF-CEM 31.1 µM | HOP-92 21.5 µM | HOP-62 64.9 µM | SK-OV-3 59.8 µM | KM12 44.9 µM | OVCAR-4 23.5 µM | HCT-116 37.2 µM | SW-620 38.7 µM | DU-145 24.3 µM | CAKI-1 33.8 µM | SNB-75 30.1 µM | U-251 36.6 µM | SF-539 19.1 µM | COLO 205 53.6 µM | MOLT-4 8.97 µM | SF-295 > 10 µM | UACC-257 40.2 µM | A549 30 µM | SF-268 20.7 µM | HL-60 30.7 µM | NCI/ADR-RES 23 µM | MDA-MB-435 35.5 µM | MDA-N 38.1 µM | SK-MEL-5 57.1 µM | SR 22.4 µM | LOX IMVI 17.4 µM | IGROV-1 26.9 µM | Malme-3M 23.9 µM | SK-MEL-2 24.6 µM | NCI-H460 27.5 µM | NCI-H23 24.3 µM | SN12C 31.1 µM | M14 29.2 µM | K562 39.4 µM | TK-10 > 100 µM | A498 40.3 µM | ACHN 32.8 µM | SK-MEL-28 28 µM | MCF7 29.6 µM | UO-31 19.6 µM | Hs-578T 26.3 µM | NCI-H522 16.3 µM | OVCAR-8 21.6 µM | HT-29 > 100 µM
28.4 µM: HCT-15
active: RXF 393 0.0689 µM

[N-]=[N+]=NCc1cccc(Nc2cc(=O)[nH]c(=O)[nH]2)c1
inactive: EKVX > 100 µM | UACC-62 > 100 µM | 786-0 > 100 µM | T47D 51.2 µM | BT-549 > 100 µM | NCI-H226 > 100 µM | OVCAR-3 > 100 µM | OVCAR-5 > 100 µM | CCRF-CEM > 100 µM | RXF 393 > 100 µM | HOP-92 74 µM | HOP-62 > 100 µM | SK-OV-3 > 100 µM | SNB-19 > 100 µM | KM12 > 100 µM | HCT-116 > 100 µM | SW-620 > 100 µM | DU-145 > 100 µM | CAKI-1 > 100 µM | SNB-75 > 100 µM | SF-539 > 100 µM | COLO 205 > 100 µM | MOLT-4 > 100 µM | SF-295 57.3 µM | UACC-257 30.8 µM | A549 > 100 µM | SF-268 > 100 µM | HL-60 > 100 µM | NCI/ADR-RES > 100 µM | MDA-MB-435 > 100 µM | MDA-N > 100 µM | SK-MEL-5 > 100 µM | RPMI-8226 > 100 µM | SR > 100 µM | LOX IMVI > 100 µM | IGROV-1 > 100 µM | Malme-3M > 100 µM | SK-MEL-2 > 100 µM | NCI-H23 > 100 µM | SN12C > 100 µM | M14 > 100 µM | K562 > 100 µM | TK-10 > 100 µM | A498 > 100 µM | ACHN > 100 µM | SK-MEL-28 > 100 µM | MCF7 > 100 µM | UO-31 > 100 µM | HCC 2998 > 100 µM | Hs-578T > 100 µM | NCI-H522 > 100 µM | OVCAR-8 > 100 µM | HT-29 > 100 µM
> 100 µM: HCT-15

NCCSCc1ccccc1Cl
> 100 µM: HCT-15
inactive: EKVX 34.3 µM | MDA-MB-231 45.6 µM | UACC-62 53.6 µM | 786-0 42.7 µM | T47D 42.4 µM | BT-549 69.7 µM | NCI-H226 > 100 µM | OVCAR-3 28.9 µM | OVCAR-5 > 100 µM | CCRF-CEM 25.2 µM | RXF 393 83.8 µM | HOP-92 68.2 µM | HOP-62 40.6 µM | SNB-19 80.4 µM | KM12 47.3 µM | OVCAR-4 64.9 µM | HCT-116 46.9 µM | SW-620 33.4 µM | DU-145 43 µM | CAKI-1 > 100 µM | PC-3 30.3 µM | SNB-75 37.5 µM | U-251 31.6 µM | MOLT-4 31 µM | SF-295 41.1 µM | UACC-257 23.3 µM | A549 > 100 µM | SF-268 95.7 µM | NCI/ADR-RES > 100 µM | MDA-MB-435 36 µM | MDA-N 30.5 µM | SK-MEL-5 63 µM | SR 18.6 µM | LOX IMVI 25.7 µM | IGROV-1 51.4 µM | Malme-3M 65.8 µM | SK-MEL-2 30.6 µM | NCI-H460 31.3 µM | NCI-H23 30.1 µM | SN12C 43.4 µM | M14 63.4 µM | K562 26.9 µM | TK-10 26.4 µM | A498 27 µM | ACHN > 100 µM | SK-MEL-28 64.6 µM | UO-31 > 100 µM | HCC 2998 18.6 µM | Hs-578T 73.5 µM | NCI-H522 48.2 µM | OVCAR-8 43.3 µM | HT-29 36.1 µM

O=c1c(-c2ccccc2F)coc2cc(F)ccc12
> 100 µM: HCT-15
inactive: EKVX > 100 µM | MDA-MB-231 > 100 µM | UACC-62 > 100 µM | 786-0 79.6 µM | T47D > 100 µM | BT-549 99.1 µM | NCI-H226 > 100 µM | OVCAR-3 > 100 µM | OVCAR-5 > 100 µM | CCRF-CEM > 100 µM | RXF 393 > 100 µM | HOP-92 > 100 µM | HOP-62 > 100 µM | SK-OV-3 > 100 µM | SNB-19 > 100 µM | KM12 > 100 µM | OVCAR-4 > 100 µM | HCT-116 > 100 µM | SW-620 > 100 µM | DU-145 > 100 µM | CAKI-1 > 100 µM | PC-3 > 100 µM | SNB-75 24.2 µM | U-251 97.7 µM | SF-539 91.4 µM | COLO 205 > 100 µM | MOLT-4 > 100 µM | SF-295 > 100 µM | UACC-257 > 100 µM | A549 > 100 µM | SF-268 > 100 µM | HL-60 70.6 µM | MDA-MB-435 > 100 µM | MDA-N > 100 µM | SK-MEL-5 > 100 µM | LOX IMVI 34.8 µM | IGROV-1 88.3 µM | SK-MEL-2 > 100 µM | NCI-H460 > 100 µM | NCI-H23 63.4 µM | SN12C > 100 µM | M14 > 100 µM | TK-10 > 100 µM | A498 > 100 µM | ACHN > 100 µM | SK-MEL-28 > 100 µM | UO-31 > 100 µM | Hs-578T > 100 µM | NCI-H522 37.7 µM | OVCAR-8 > 100 µM | HT-29 > 100 µM

COc1ccc(C(=O)c2[nH]c(Nc3ccc(Cl)cc3)c(C(=S)Nc3ccccc3)c2N)cc1
> 100 µM: HCT-15
inactive: EKVX > 100 µM | MDA-MB-231 > 100 µM | UACC-62 > 100 µM | 786-0 > 100 µM | T47D > 100 µM | BT-549 > 100 µM | NCI-H226 47 µM | OVCAR-3 > 100 µM | OVCAR-5 > 100 µM | CCRF-CEM > 100 µM | RXF 393 > 100 µM | HOP-92 > 100 µM | HOP-62 > 100 µM | SK-OV-3 > 100 µM | SNB-19 > 100 µM | KM12 > 100 µM | OVCAR-4 23.8 µM | HCT-116 60.7 µM | SW-620 > 100 µM | DU-145 > 100 µM | CAKI-1 > 100 µM | SNB-75 44 µM | SF-539 > 100 µM | COLO 205 > 100 µM | MOLT-4 > 100 µM | SF-295 > 100 µM | UACC-257 > 100 µM | A549 > 100 µM | SF-268 > 100 µM | HL-60 > 100 µM | NCI/ADR-RES > 100 µM | MDA-MB-435 > 100 µM | MDA-N > 100 µM | SK-MEL-5 > 100 µM | SR > 100 µM | LOX IMVI > 100 µM | IGROV-1 > 100 µM | Malme-3M > 100 µM | SK-MEL-2 > 100 µM | NCI-H460 > 100 µM | NCI-H23 > 100 µM | SN12C > 100 µM | K562 > 100 µM | TK-10 > 100 µM | A498 > 100 µM | ACHN > 100 µM | SK-MEL-28 22.8 µM | MCF7 70.5 µM | UO-31 > 100 µM | HCC 2998 > 100 µM | Hs-578T > 100 µM | NCI-H522 > 100 µM | OVCAR-8 > 100 µM | HT-29 24.8 µM
